# “Also recorded” adds a separate entry of the source.
# How the values were obtained:
# tumor-expressed BTK = biological target: T1, tumor-expressed BTK (Homo sapiens, UniProt Q06187); experiment: Intracranial TMD8 tumor model, BTK remaining in TMD8 cells; assay type: in vivo, female CB.17 SCID mice; conditions: 90 mg/kg orally every day for twelve days, vs vehicle
# T1 construct: endogenous in cells; host or cells: TMD8 cells (human ABC-DLBCL) grown intracranially in CB.17 SCID mice
# Experimental: (§1) TMD8 cells were implanted into female CB.17 SCID mice by intracranial injection of 5E5 TMD8 cells. Treatment with compound 1 begun the following day. Mice were treated orally every day for twelve days with either vehicle or 90 mg/kg of Compound 1. Brains were then harvested, dissociated into single cell suspensions and BTK level in TMD8 cells was assessed by flow cytometry. TMD8 cells in dissociated brain tissue were identified by human-specific surface markers (CD20+HLA+) and total numbers of TMD8 cells per brain is reported in (A, tumor burden). Percent BTK remaining in TMD8 cells (B) was calculated according to the below formula:
# 100*(tumor BTK MFI−background MFI)/(peak MFI−background MFI),
# where background MFI and peak MFI were calculated using TMD8 cells treated, in vitro, overnight with 1 μM compound 1 or DMSO control, respectively. In FIG. 8,**** p<0.0001; Welch's t-test was used to compare mice treated with compound 1 to mice treated with vehicle.
# [1] = tested on: Experimental autoimmune encephalomyelitis (EAE); experiment: Experimental autoimmune encephalomyelitis (EAE) model; assay type: in vivo, C57BL/6 mice
# Experimental: EAE was induced in C57BL/6 mice by immunization with an emulsion of MOG1-125 in complete Freund's adjuvant (CFA), followed by administration of pertussis toxin in PBS, first on the day of immunization (Day 0) and then again the following day (Day 1).
# Dosing of all mice started on Day −1 and continued through Day 22. Fingolimod (FTY720, Gilenya) is the a commonly used positive control in this model.
# Statistical significance was determined between vehicle control and treated groups based on the end clinical scores using Wilcoxon's non-parametric test.
# Statistical analysis: Demyelination (anti-MBP) with Wilcoxon's non-parametric test; inflammatory foci or apoptosis with two-tailed Student's t-test.
# [2] = tested on: well-established arthritis; experiment: Mouse model of well-established arthritis, clinical arthritis score; assay type: in vivo, male DBA/1 mice
# MRL/lpr model = experiment: MRL/lpr lupus model; assay type: in vivo, MRL/lpr mice
# Experimental: Dexamethasone was used as positive control.
# Statistical significance was determined between vehicle control and treated groups by ANOVA with Dunnett's post-hoc analysis.
# Glomeruli size is a quantitative measure that correlates well with the histopathological grade and severity of nephritis in this model. Statistical significance was determined between vehicle control and treated groups by ANOVA with Dunnett's post-hoc analysis (glomerulus diameter) or with a Kruskal-Wallis test with Dunn's post-hoc analysis (summed scores). * p<0.05, ** p<0.01, *** p<0.001**** p<0.0001.
# [3] = Exposure in cerebrospinal fluid after a single oral dose; assay type: in vivo, Male C57BL/6 mice; conditions: mouse, single oral dose 300 mg/kg
# Experimental: Male C57BL/6 mice were administered Compound 1 orally at 300 mg/kg and 4, 8, or 24 hours after dosing CSF and plasma was collected from three mice per time point. The concentration of Compound 1 in CSF and plasma was determined by LC/MS/MS; free plasma concentration was calculated by multiplying total plasma concentration by the previously determined percentage of Compound 1 unbound to plasma protein.
# intracranial TMD8 tumors = experiment: Intracranial TMD8 tumor model, tumor burden; assay type: in vivo, female CB.17 SCID mice; conditions: 90 mg/kg orally every day for twelve days, vs vehicle
# Source text: TMD8 is a human activated B cell (ABC)-type diffuse large B cell lymphoma (DLBCL) cell line that is dependent on BTK signaling for survival (Davis, R. E., Ngo, V. N., Lenz, G., Tolar, P., Young, R. M., Romesser, P. B., Staudt, L. M. (2010). Chronic active B-cell-receptor signalling in diffuse large B-cell lymphoma. Nature, 463(7277), 88-92. doi: 10.1038/nature08638).
# as §1, with “formula: […]” for “formula:”
# [4] = H&E-stained kidney tissue, end of study
# T1 sequence (Q06187 whole entry): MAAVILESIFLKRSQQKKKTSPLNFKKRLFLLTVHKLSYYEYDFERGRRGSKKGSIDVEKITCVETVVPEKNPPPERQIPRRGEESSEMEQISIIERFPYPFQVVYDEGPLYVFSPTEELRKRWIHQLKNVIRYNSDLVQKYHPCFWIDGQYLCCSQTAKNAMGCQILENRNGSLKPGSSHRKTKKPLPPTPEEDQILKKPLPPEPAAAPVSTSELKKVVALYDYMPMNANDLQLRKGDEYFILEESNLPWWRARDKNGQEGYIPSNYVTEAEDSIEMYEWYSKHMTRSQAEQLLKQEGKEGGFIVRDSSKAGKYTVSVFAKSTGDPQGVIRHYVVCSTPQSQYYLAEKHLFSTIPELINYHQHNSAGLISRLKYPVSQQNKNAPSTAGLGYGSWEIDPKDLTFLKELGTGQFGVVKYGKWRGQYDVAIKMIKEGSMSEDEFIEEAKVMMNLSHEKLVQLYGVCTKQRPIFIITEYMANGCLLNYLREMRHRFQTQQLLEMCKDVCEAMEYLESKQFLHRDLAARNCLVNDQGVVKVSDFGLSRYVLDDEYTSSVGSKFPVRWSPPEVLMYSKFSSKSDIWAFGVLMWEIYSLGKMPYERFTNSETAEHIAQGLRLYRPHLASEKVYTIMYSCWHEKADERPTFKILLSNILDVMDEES
compound,measurement,setting,value
CN1CCN([C@@H]2CCCN(c3cnc(C(N)=O)c(Nc4ccc(C5CCN(CC6CCN(c7ccc(C(=O)N[C@H]8CCC(=O)NC8=O)nc7)CC6)CC5)cc4)n3)C2)C1=O [Compound 1],BTK in TMD8 tumor cells,tumor-expressed BTK,degradation of tumor-expressed BTK
same,BTK in TMD8 tumor cells,tumor-expressed BTK; listed as compound 1,degraded BTK
same,mean clinical score,"[1]; EAE, 30 mg/kg, compared with ibrutinib 30 mg/kg",superior to Ibrutinib; also recorded: lower mean clinical score than ibrutinib
same,EAE clinical scores,"[1]; prophylactic daily oral treatment, Day −1 through Day 22, dose dependence",dose-dependent reduction of EAE clinical scores
same,disease (clinical arthritis score),"[2]; 10 mg/kg or 30 mg/kg once daily oral, started after arthritis was established, to Arthritis Day 14",strongly suppressed disease
same,control of disease compared with comparators,"[2]; Compound 1 and ibrutinib 30 mg/kg, Enbrel 10 mg/kg i.p., tofacitinib 30 mg/kg twice daily, rilzabrutinib",more potently than anti-TNF-alpha blocking antibody (Enbrel) or BTK inhibitors rilzabrutinib and tofacitinib
same,"protein urine score, statistically significant reduction vs vehicle","MRL/lpr model; 30 mg/kg, Urine Protein Score AUC",statistically significant reduction
same,anti-ds DNA autoantibody in end of study serum,"MRL/lpr model; 30 mg/kg, vs vehicle",statistically significant reduction
same,overall summed histology score,MRL/lpr model; [4],more effective than Ibrutinib
same,size of the glomeruli,MRL/lpr model; [4],more effective than Ibrutinib
same,kidney disease,MRL/lpr model; MRL/lpr model,significantly ameliorated kidney disease
same,urine protein score,"MRL/lpr model; daily oral, starting at 10 weeks of age, dose dependence",dose-dependent reduction of urine protein score
same,ability to cross the blood brain barrier,[3],crosses the blood brain barrier
same,exposure in cerebral spinal fluid (CSF),"[3]; 4, 8, 24 hours",demonstrates exposure in cerebral spinal fluid (CSF)
same,tumor burden (total TMD8 cells per brain),intracranial TMD8 tumors,reduced tumor burden
same,tumor burden (total TMD8 cells per brain),intracranial TMD8 tumors; listed as compound 1,significantly reduced TMD8 tumor cells
